The assay has as its system Phakopsora pachyrhizi spores. On the procedure:
The leaves were examined with a stereoscope in order to identify those with a high degree of sporulation. Leaves were cut in standard size pieces.
Three different concentrations of SDC in distilled water were prepared having 5 ppm, 10 ppm and 15 ppm of silver, respectively. Ten ml of each solution was placed in separate test tubes. Ten selected pieces of soybean leaves were place in each test tube and stirred to suspend the spores present in the rust spots. The same procedure was used for a control, omitting the SDC in the solution. The leaves were left in the solution for two hours. For each of the product dilutions, ten Petri dishes containing water-agar substrate were inoculated with 100 spores each and maintained for 6 hours in the dark. Lactophenol dye was used to stain the mycelium growth, which was evaluated visually be microscope.
A second experiment was performed using the protocol above, with the following additions. Duplicate solutions were made using Well Water from Parana State, Southern Brazil (WW) and Product Water from Reverse Osmosis (PW). The surfactant sodium lauryl sulphate was added to each solution to a concentration of 0.01% w/w. Again, duplicate Petri dishes were inoculated with 100 spores for each concentration of SDC in the two water types and for […] the control.

Read-outs that look alike come from different tables or passages of the source.

For the molecule `O=C(O)CC(O)(CC(=O)O)C(=O)[O-].[Ag+]` [SDC, silver dihydrogen citrate], the “germination of spores from soybean leaves (summary in words)” value (5, 10 and 15 ppm silver in distilled water, well water and product water from reverse osmosis, with or without surfactant) is “almost totally inhibited”. Also, the “% Germination” value is reported as 5.0% (first experiment, 5 ppm silver in distilled water, 2 h in solution, 6 h in the dark, control 16); 4.0% (first experiment, 10 ppm silver in distilled water, 2 h in solution, 6 h in the dark, control 16); 5.0% (first experiment, 15 ppm silver in distilled water, 2 h in solution, 6 h in the dark, control 16); 1.6% (second experiment, 5 ppm, Product Water from Reverse Osmosis (PW), 0.01% w/w sodium lauryl sulphate, control 40); 1.1% (second experiment, 5 ppm, Well Water (WW), 0.01% w/w sodium lauryl sulphate, control 40); 0.4% (second experiment, 10 ppm, Product Water from Reverse Osmosis (PW), 0.01% w/w sodium lauryl sulphate, control 40). Also, the “% Germination” value (second experiment, 10 ppm, Well Water (WW), 0.01% w/w sodium lauryl sulphate, control 40) turned out to be 0.5%; the “% Germination” value (second experiment, 15 ppm, Product Water from Reverse Osmosis (PW), 0.01% w/w sodium lauryl sulphate, control 40) stood at 0.5%; the “% Germination” value (second experiment, 15 ppm, Well Water (WW), 0.01% w/w sodium lauryl sulphate, control 40) is listed as 0.2%.

The record behind these values is US20100099759A1, “AGRICULTURAL APPLICATIONS OF SILVER […]” (priority 2008, published 2010).
